This is an account of results in article PMC10487961, “Antiplatelet Effects of Selected Xanthine-Based Adenosine A2A and A2B Receptor Antagonists Determined in Rat Blood” (International Journal of Molecular Sciences, 2023).

Where two headings read alike, the source gives them in different places. Where only a bound is given, the exact number is not on record here.

The target of test [1] is T1, human recombinant PDE2A (Homo sapiens, UniProt O00408).
T1 construct: purchased SignalChem
Put plainly: PDE-Glo activity inhibition test, PDE2A. It counts as biochemical. As to conditions: cGMP substrate, read-out: IC50 (CV%) PDE2A.

A further test addresses T2, human recombinant PDE3A (Homo sapiens, UniProt Q14432).
T2 construct: purchased SignalChem
Put plainly: PDE-Glo activity inhibition test, PDE3A. It counts as biochemical. The settings on record: for IC50: human recombinant PDE3A, cAMP substrate, read-out: IC50 (CV%) PDE3A.

A further test has as its target hA2BR. The settings on record: human A2B receptor; read-out: Ki ± SEM hA2BR vs. [3H]PSB-603; cited from earlier work.
Test [2] relates to lipid peroxidation in rat brain homogenate. Put plainly: In vitro lipid peroxidation (MDA/TBARS test). The procedure:
The lipid peroxidation was measured by the formation of thiobarbituric acid reactive substances (TBARS) in rat brain homogenate, which was made in 0.9% NaCl containing 10 mg tissue per mL [60]. Briefly, rat brain homogenates (1 mL) were incubated at 37 °C for 5 min with 10 µL of a test compound or vehicle. Lipid peroxidation was initiated with the addition of 50 µL of 0.5 mmol/L FeCl2 and 50 µL of 2 mmol/L ascorbic acid. After 30 min of incubation, the reaction was stopped by adding 0.1 mL of 0.2% butylhydroxytoluene. Thiobarbituric acid reagent was then added, and the mixture was heated for 15 min in a boiling water bath. The TBARS was extracted using n-butanol and measured at 532 nm. The amount of TBARS was quantified using a standard curve of malondialdehyde (1,1,3,3-tetraethoxypropane was used as standard).
The compound used to compare the results was carvedilol. Its activity was tested in the concentration range of 10–3000 μM (Figure 8). The reference was the maximum activity of carvedilol at the highest concentration (100%). Test compounds were assayed at concentrations of 100 and 1000 µM. The obtained results were then compared to the activity of the reference compound at identical concentrations (1000 µM).

For a further test, the target named is hA3R. The settings on record: human A3 receptor; read-out: Ki ± SEM hA3R vs. [3H]PSB-11; cited from earlier work.
Test [3] deals with platelet aggregation in whole rat blood induced with collagen. Put plainly: In vitro whole rat blood aggregation induced with collagen (Multiplate impedance aggregometry). It counts as cell-based. As to conditions: for Effect on collagen-induced platelet aggregation (in words): screened at 10 µM and 100 µM, whole rat blood (Figure 1); for Effect on collagen-induced platelet aggregation (in words) / Reduction of collagen-induced platelet aggregation: collagen 1.6 µg/mL; for IC50: Collagen [1.6 µg/mL], concentration inhibiting aggregation of whole rat blood in vitro by 50%; for Reduction of collagen-induced platelet aggregation: 100 µM compound, whole rat blood, screening (Figure 1). The procedure:
(§1) To evaluate antiplatelet activities of the test compounds, freshly isolated rat whole blood was incubated with compound or vehicle, and the aggregation responses were assessed with a whole blood aggregometer by measuring impedance changes. Platelet aggregation was induced with collagen. First, compounds were screened for anti-aggregation effects at concentration of 10 µM and 100 µM (Figure 1). […] In vitro aggregation tests were conducted using freshly collected whole rat blood with a Multiplate platelet function analyzer (Roche Diagnostic, Mannheim, Germany), the five-channel aggregometer based on measurements of electric impedance, according to previous procedures. Upon activation, platelets adhere and progressively aggregate on a duplicate metal sensor in the analyzer test cuvette. This leads to a change in resistance, which is proportional to the number of platelets adhering to the electrodes. Blood was drawn from the carotid of rats with hirudin blood tubes (S-Monovette, Hirudin, Sarstedt, Germany). Then, 300 μL of hirudin anticoagulated blood was mixed with 300 μL prewarmed isotonic saline solution containing the studied compound or vehicle (DMSO 0.1%) and preincubated for 3 min at 37 °C with continuous stirring. The agonists (collagen, ADP) were diluted using deionized water. Aggregation was induced by adding collagen (final concentration 1.6 µg/mL) or ADP (final concentration 6.5 µM). […] Activated platelet function was recorded for 6 min. Multiplate software v. V2.05 was used to analyze the area under the curve (AUC) of the clotting process for each measurement and calculate the mean values.

Test [4] addresses T3, human recombinant PDE5A (Homo sapiens, UniProt O76074).
T3 construct: purchased SignalChem
The test is described as follows: PDE-Glo activity inhibition test, PDE5A. The test is classed as biochemical. As to conditions: cGMP substrate, read-out: IC50 (CV%) PDE5A.

A further test has as its target hA1R. As to conditions: human A1 receptor; read-out: Ki ± SEM hA1R vs. [3H]CCPA; cited from earlier work.
For another test, the target named is hA2AR. The settings on record: cited from earlier work.
The target in test [5] is T3, human recombinant PDE5A. Also on record: method as in PMID 31705904. The settings on record: cited from earlier work.
Test [6] concerns the target T1, human recombinant PDE2A. Also on record: method as in PMID 31705904. The settings on record: cited from earlier work.
The subject of test [7] is platelet aggregation in whole rat blood induced by ADP. The test is described as follows: In vitro whole rat blood aggregation induced with ADP (Multiplate impedance aggregometry). It counts as cell-based. The settings on record: ADP [6.5 μM], concentration inhibiting aggregation of whole rat blood in vitro by 50%. The procedure: as §1, with “In further experiments,” for “To evaluate antiplatelet activities of the test compounds, freshly isolated rat whole blood was incubated with compound or vehicle, and the aggregation responses were assessed with a whole blood aggregometer by measuring impedance changes. Platelet”, “ADP. In this model of aggregation, we tested the selected” for “collagen. First,”, “as well as IBMX as a positive control.” for “were screened for anti-aggregation effects at concentration of 10 µM and 100 µM (Figure 1).”

T2 sequence (Q14432 whole entry): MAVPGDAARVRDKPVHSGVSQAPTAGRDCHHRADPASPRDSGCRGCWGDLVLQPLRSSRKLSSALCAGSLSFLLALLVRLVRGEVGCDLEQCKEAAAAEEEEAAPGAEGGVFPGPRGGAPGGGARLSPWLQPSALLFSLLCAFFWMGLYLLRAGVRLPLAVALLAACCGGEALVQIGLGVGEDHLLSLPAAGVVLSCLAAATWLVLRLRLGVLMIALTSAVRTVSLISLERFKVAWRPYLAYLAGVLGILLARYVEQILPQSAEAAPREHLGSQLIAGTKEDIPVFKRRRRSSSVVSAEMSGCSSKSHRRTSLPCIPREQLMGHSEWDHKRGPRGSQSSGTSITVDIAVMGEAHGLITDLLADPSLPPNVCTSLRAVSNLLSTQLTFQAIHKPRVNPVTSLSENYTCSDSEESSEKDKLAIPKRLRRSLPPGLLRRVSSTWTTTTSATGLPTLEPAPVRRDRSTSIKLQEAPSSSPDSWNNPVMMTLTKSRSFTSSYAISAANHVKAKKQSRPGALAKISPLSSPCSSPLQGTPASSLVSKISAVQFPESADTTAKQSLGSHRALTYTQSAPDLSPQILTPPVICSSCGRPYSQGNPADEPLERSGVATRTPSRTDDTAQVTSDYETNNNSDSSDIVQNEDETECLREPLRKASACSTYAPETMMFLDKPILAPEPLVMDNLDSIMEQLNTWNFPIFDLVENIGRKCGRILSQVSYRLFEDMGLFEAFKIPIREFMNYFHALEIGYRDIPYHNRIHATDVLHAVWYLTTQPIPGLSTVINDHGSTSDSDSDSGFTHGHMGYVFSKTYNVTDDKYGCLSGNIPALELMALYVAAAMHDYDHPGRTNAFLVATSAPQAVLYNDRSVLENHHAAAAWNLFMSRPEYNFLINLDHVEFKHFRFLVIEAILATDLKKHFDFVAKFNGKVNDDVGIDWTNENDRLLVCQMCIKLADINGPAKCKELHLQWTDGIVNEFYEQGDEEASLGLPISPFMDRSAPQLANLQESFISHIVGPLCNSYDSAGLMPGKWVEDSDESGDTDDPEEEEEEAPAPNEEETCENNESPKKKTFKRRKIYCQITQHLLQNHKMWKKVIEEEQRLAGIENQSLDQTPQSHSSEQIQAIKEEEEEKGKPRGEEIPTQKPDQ
T1 sequence (O00408 whole entry): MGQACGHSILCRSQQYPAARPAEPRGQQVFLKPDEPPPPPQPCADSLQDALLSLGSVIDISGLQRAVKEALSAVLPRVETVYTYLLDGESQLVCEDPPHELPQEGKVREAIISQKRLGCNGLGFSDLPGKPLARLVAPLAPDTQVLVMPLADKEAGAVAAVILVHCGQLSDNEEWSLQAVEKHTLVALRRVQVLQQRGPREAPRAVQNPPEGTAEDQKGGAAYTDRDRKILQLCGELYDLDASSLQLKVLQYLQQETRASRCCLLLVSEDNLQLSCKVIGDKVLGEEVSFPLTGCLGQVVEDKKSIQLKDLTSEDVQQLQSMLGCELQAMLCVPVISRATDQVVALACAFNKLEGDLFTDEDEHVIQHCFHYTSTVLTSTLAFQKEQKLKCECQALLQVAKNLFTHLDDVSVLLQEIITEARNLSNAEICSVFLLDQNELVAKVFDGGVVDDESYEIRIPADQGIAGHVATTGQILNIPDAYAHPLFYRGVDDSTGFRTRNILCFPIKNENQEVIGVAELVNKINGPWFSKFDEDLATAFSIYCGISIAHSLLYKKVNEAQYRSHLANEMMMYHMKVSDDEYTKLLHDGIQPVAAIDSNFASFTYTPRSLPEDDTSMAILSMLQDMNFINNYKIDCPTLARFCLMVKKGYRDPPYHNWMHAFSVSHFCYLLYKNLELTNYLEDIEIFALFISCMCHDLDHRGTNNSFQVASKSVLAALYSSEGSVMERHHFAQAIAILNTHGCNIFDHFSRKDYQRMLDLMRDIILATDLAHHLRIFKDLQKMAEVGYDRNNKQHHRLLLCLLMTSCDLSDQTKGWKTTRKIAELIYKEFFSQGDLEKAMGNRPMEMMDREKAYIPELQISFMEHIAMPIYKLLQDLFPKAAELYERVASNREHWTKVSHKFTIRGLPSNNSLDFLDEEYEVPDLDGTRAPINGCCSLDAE

As a reminder, the IC50 is the midpoint of a concentration-inhibition curve. On to `CCCCCC[C@@H]([C@@H](C)O)n1cnc2c(N)ncnc21` (racemic) [EHNA, erythro-9-(2-hydroxy-3-nonyl)adenine, reference compound], for which the IC50 at human recombinant PDE2A [1] turned out to be 8.22 µM.
Regarding `O=C1CCc2cc(OCCCCc3nnnn3C3CCCCC3)ccc2N1` [Cilostazol, cilostazol, reference compound], on human recombinant PDE3A, the IC50 came out at 0.0545 µM.
The term Ki denotes the dissociation constant of the complex between target and ligand, obtained from inhibition or displacement. Regarding “3,7-dimethyl-8-(3-phenylpropoxy)-1-(prop-2-yn-1-yl)--purine-2,6-dione [TB-46]”, the Ki on hA2BR is 0.472 ± 0.174 µM; at hA3R it was > 1 µM; at hA1R, 0.158 ± 0.012 µM; on hA2AR, 0.0191 ± 0.0023 µM. Further, the values for the IC50 at human recombinant PDE2A [1], on human recombinant PDE3A and at human recombinant PDE5A [4] were 9.85 µM, 0.58 µM and 68.6 µM, respectively. Also, in test [2] (concentration 10 times lower than 1000 µM), the “Antioxidant activity at a concentration 10 times lower (in words)” value was “practically disappeared”. The “Effect on collagen-induced platelet aggregation (in words)” value in [3] is listed as “did not affect platelet aggregation”.
On to `CC1CCC(N2CCCn3c2nc2c3c(=O)n(C)c(=O)n2C)CC1` (stereo not shown) [KD-64, 1,3-dimethyl-9-(4-methylcyclohexyl)-pyrimido [2,1-f] purine-2,4-dione], for which the inhibition constant (Ki) was > 1 µM on hA2BR, > 1 µM on hA3R, > 1 µM on hA1R and 0.24 µM on hA2AR. Further, the IC50 at human recombinant PDE2A [1] is 27 µM; at human recombinant PDE3A, 10.3 µM; at human recombinant PDE5A [4], > 100 µM. In test [3], the “Effect on collagen-induced platelet aggregation (in words)” value was “did not affect platelet aggregation”.
Consider `CC(C)Cn1c(=O)n(C)c(=O)c2[nH]cnc21` [IBMX, 1-methyl-3-isobutylxanthine, reference compound], for which the IC50 was 98.8 ± 29.8 µM in test [3]; ~100 µM in test [3] (Rattus norvegicus, Platelet); 45.1 µM at human recombinant PDE5A [5]; 9.22 µM at human recombinant PDE2A [6]; 18.5 ± 7.3 µM in [7].
Consider `CCCCn1c(=O)[nH]c2nc(-c3ccc(S(=O)(=O)N4CCN(c5ccc(Cl)cc5)CC4)cc3)[nH]c2c1=O` [PSB-23066, 1-butyl-8-(4-((4-(4-chlorophenyl)piperazin-1-yl)sulfonyl)phenyl)-1H-purine-2,6(3H,7H)-dione], for which the Ki at hA2BR was 0.000401 ± 0.000136 µM; at hA3R, > 1 µM; on hA1R, > 1 µM; at hA2AR, > 1 µM. In [3], the “Effect on collagen-induced platelet aggregation (in words)” value was “did not affect platelet aggregation”. Also, at human recombinant PDE5A [4], the IC50 is 45.8 µM.
As to `CCCn1c(=O)[nH]c2nc(-c3ccc(S(=O)(=O)N4CCN(c5ccc(Cl)cc5)CC4)cc3)[nH]c2c1=O` [PSB-603, 1-propyl-8-(4-((4-(4-chlorophenyl)piperazin-1-yl)sulfonyl)phenyl)-1H-purine-2,6(3H,7H)-dione], the Ki is 0.000553 ± 0.000103 µM at hA2BR, > 1 µM on hA3R, > 1 µM on hA1R and > 1 µM at hA2AR. For the same compound, the IC50 was 50.1 µM at human recombinant PDE2A [1]; > 100 µM on human recombinant PDE3A; 98.6 ± 27 µM in test [3]; ~100 µM in test [3] (Rattus norvegicus, Platelet); 39.7 µM at human recombinant PDE5A [4]; 82.9 ± 17 µM in [7]. Besides, the “Effect against PDE3A activity (in words)” value at human recombinant PDE3A (in the concentrations tested) was “did not display any detectable effects”. For the same compound, the “Reduction of collagen-induced platelet aggregation” value in test [3] came out at 50.4%. In addition, the “Prevention of collagen-induced platelet aggregation” value in test [3] (100 µM, highest tested concentration, concentration series (Figure 2)) turned out to be 54.12%. Moreover, the “Effect on platelet activity at lower concentrations (in words)” value in test [3] (concentrations below 100 µM, collagen 1.6 µg/mL (Figure 2)) is on record as “did not markedly affect platelet activity”.
The EC50 is the concentration at which the effect is half-maximal. As to `COc1ccccc1OCCNCC(O)COc1cccc2[nH]c3ccccc3c12` (stereo not shown) [Carvedilol, carvedilol, reference compound], the concentration for a half-maximal effect (EC50) in test [2] (carvedilol tested at 10–3000 μM, Figure 8, read-out: EC50 antioxidant action (lipid peroxidation)) was 68.8 µM.
For `CCn1c(=O)c2c(nc(NCc3c(Cl)ccc(OC)c3F)n2C)n(C)c1=O` [MZ-1497, 8-((6-chloro-2-fluoro-3-methoxybenzyl)amino)-1-ethyl-3,7-dimethyl-purine-2,6-dione], the Ki at hA2BR was > 1 µM; on hA3R it was > 1 µM; on hA1R, > 1 µM; on hA2AR, 0.0685 ± 0.0155 µM. In addition, the “Effect on collagen-induced platelet aggregation (in words)” value in test [3] was “did not affect platelet aggregation”. For the same compound, on human recombinant PDE5A [4], the IC50 was > 100 µM.
Regarding `C#CCn1c(=O)c2c(nc(OCc3ccccc3Br)n2C)n(C)c1=O` [TB-42], the Ki was > 1 µM on hA2BR, 0.357 ± 0.049 µM on hA1R and 0.059 ± 0.0102 µM on hA2AR. Moreover, in [3], the “Reduction of collagen-induced platelet aggregation” value is given as 56.8%. Besides, the figures for the IC50 (in test [3] (Platelet); at human recombinant PDE5A [4]; in test [7]) were 69.3 ± 0.7 µM, 64.5 µM and 58.6 ± 35.6 µM, respectively.
